This note sets out measurements from ChEMBL document CHEMBL1147766, “Structure-based design of novel groups for use in the P1 position of thrombin inhibitor scaffolds. Part 1: Weakly basic azoles” (Bioorg Med Chem Lett, 2006).

SMILES strings stand for the structures.

The Ki is the dissociation constant of the complex between target and ligand, obtained from inhibition or displacement. The low end stands for tighter binding, the high end for weaker binding. As a reminder, the Cmax is the maximum level reached in the sampled fluid or tissue. By half-life is commonly meant the time in which the quantity being followed falls by half.

The target in one data set is Trypsin (Homo sapiens, UniProt P07477+P07478+P35030). The experiment in a line: Binding affinity to trypsin. The format is protein assay.
Data set [1] concerns the target T1, Prothrombin (Homo sapiens, UniProt P00734). Nature of the data set: Binding affinity to thrombin.
The nature of data set [2]: Cmax in dog administered with 4 mg/kg, po. The class given is ADME, organism-based, Canis lupus familiaris. Set-up: dose 4 mg/kg, route oral. The conditions noted are these: in vivo.
Data set [3] in a line: Half life in dog administered with 4 mg/kg, po. Details: dose 4 mg/kg, route oral. The conditions noted are these: in vivo. The format is ADME, organism-based, Canis lupus familiaris.
Data set [4] deals with T1, Prothrombin. The conditions noted are these: Plasma.
Description: Anticoagulant potency in human plasma
Data set [5] is described as follows: Cmax in dog administered with 5 mg/kg, po. The conditions noted are these: in vivo. The class given is ADME, organism-based, Canis lupus familiaris. Details: dose 5 mg/kg, route oral.

For `N[C@@H](C(=O)N1CCC[C@H]1C(=O)NCc1c[nH]cn1)C(c1ccccc1)c1ccccc1`, the inhibition constant Ki was 36 µM at Trypsin and 0.38 µM at Prothrombin [1].
As for `Cc1nc[nH]c1CNC(=O)Cn1c(C)cnc(NCCc2ccccc2)c1=O`, the Cmax in data set [2] turned out to be 1400 nM. In addition, the half-life in data set [3] is 2 h. On Prothrombin [1], the Ki came to 0.053 µM.
Turning to `Cc1nc[nH]c1CNC(=O)Cn1c(C)ccc(NS(=O)(=O)Cc2ccccc2)c1=O`, the results for the Ki on Trypsin and on Prothrombin [1] were 43 µM and 0.008 µM, respectively.
As for `Cc1ccc(NS(=O)(=O)Cc2ccccc2)c(=O)n1CC(=O)NCCCc1c[nH]cn1`, the Ki at Trypsin amounted to 17 µM; at Prothrombin [1], 0.034 µM.
On the same counts, the results for `Cc1ccc(NS(=O)(=O)Cc2ccccc2)c(=O)n1CC(=O)NC/C=C/c1c[nH]cn1` are 21 µM and 0.143 µM.
Consider `Cc1ccc(NS(=O)(=O)Cc2ccccc2)c(=O)n1CC(=O)NCc1c[nH]cn1`, for which the inhibition constant Ki is 314 µM on Trypsin and 0.17 µM on Prothrombin [1].
On the same counts, the results for `Nc1ncc(CCCNC(=O)[C@@H]2CCCN2C(=O)[C@H](N)C(c2ccccc2)c2ccccc2)s1` are 32 µM and 0.198 µM.
`Cc1cnc(NCCc2ccccc2)c(=O)n1CC(=O)NC[C@H]1CC[C@H](N)CC1` showed an inhibition constant Ki at Prothrombin [1] of 0.0064 µM.
On to `Cc1ccc(NS(=O)(=O)Cc2ccccc2)c(=O)n1CC(=O)NCc1cnc(N)s1`, for which the Ki on Trypsin was greater than 1000 µM.
Regarding `Cc1nc(N)sc1CNC(=O)Cn1c(C)ccc(NS(=O)(=O)Cc2ccccc2)c1=O`, the Ki at Trypsin came to 6.5 µM; at Prothrombin [1], 0.01 µM.
On to `Cc1ccc(NS(=O)(=O)Cc2ccccc2)c(=O)n1CC(=O)NC/C=C/c1cnc(N)s1`, for which the inhibitory constant (Ki) on Trypsin is greater than 1000 µM; at Prothrombin [1] it was 1.8 µM.
Regarding `Cc1ccc(NS(=O)(=O)Cc2ccccc2)c(=O)n1CC(=O)NCCCc1cnc(N)s1`, the inhibitory constant (Ki) on Trypsin worked out at 124 µM; at Prothrombin [1] it was 0.45 µM.
Turning to `Nc1ncc(CCNC(=O)[C@@H]2CCCN2C(=O)[C@H](N)C(c2ccccc2)c2ccccc2)s1`, the Ki at Trypsin stood at 59 µM; on Prothrombin [1], 0.193 µM.
`Cc1nc[nH]c1CNC(=O)Cn1c(C)cnc(NCCc2ccccn2)c1=O` had an inhibition constant Ki on Prothrombin [1] of 0.022 µM.
Turning to `Nc1ncc(CNC(=O)[C@@H]2CCCN2C(=O)[C@H](N)C(c2ccccc2)c2ccccc2)s1`, the inhibition constant Ki was found to be 59 µM at Trypsin and 0.35 µM at Prothrombin [1].
Take `Cc1[nH]cnc1/C=C/CNC(=O)[C@@H]1CCCN1C(=O)[C@H](N)C(c1ccccc1)c1ccccc1`: the Ki on Trypsin was found to be 0.1 µM; on Prothrombin [1], 0.001 µM. Besides, the 2aPTT on Prothrombin [4] came out at 0.32 µM. The same compound registered a peak concentration (Cmax) in data set [5] of 550 nM.
Consider `Nc1ncc(/C=C/CNC(=O)[C@@H]2CCCN2C(=O)[C@H](N)C(c2ccccc2)c2ccccc2)s1`, for which the figures for the inhibition constant Ki on Trypsin and at Prothrombin [1] were 178 µM and 0.03 µM, respectively.
For the compound `N[C@@H](C(=O)N1CCC[C@H]1C(=O)NC/C=C/c1c[nH]cn1)C(c1ccccc1)c1ccccc1`, the Ki at Trypsin was 0.14 µM; on Prothrombin [1], 0.002 µM.
In the same order, the values of `N[C@@H](C(=O)N1CCC[C@H]1C(=O)NCCCc1c[nH]cn1)C(c1ccccc1)c1ccccc1` are 0.24 µM and 0.017 µM.
In the same order, the values of `Cc1[nH]cnc1CNC(=O)[C@@H]1CCCN1C(=O)[C@H](N)C(c1ccccc1)c1ccccc1` are 9.6 µM and 0.065 µM.
Consider `Cc1[nH]cnc1C#CCNC(=O)[C@@H]1CCCN1C(=O)[C@H](N)C(c1ccccc1)c1ccccc1`, for which the Ki on Trypsin was found to be 7.2 µM; at Prothrombin [1] it was 0.006 µM.
Consider `N[C@@H](C(=O)N1CCC[C@H]1C(=O)NCC#Cc1c[nH]cn1)C(c1ccccc1)c1ccccc1`, for which the inhibitory constant (Ki) on Trypsin was found to be 6 µM; on Prothrombin [1] it was 0.013 µM.
As for `N[C@@H](C(=O)N1CCC[C@H]1C(=O)NCCc1c[nH]cn1)C(c1ccccc1)c1ccccc1`, the inhibition constant (Ki) at Trypsin was 2.3 µM; on Prothrombin [1], 0.2 µM.
